Entries after “also recorded” stand apart in the source; their conditions may differ.
Key:
EL-4 T-lymphoma cells [1] = experiment: Homing of GnRH-treated EL-4 T-lymphoma in vivo into specific organs of normal syngeneic mice; set-up: species or system mouse; conditions: EL-4 cells treated ex vivo 10 nM; for mean number of EL-4 labeled cells detected in the bone marrow: 48 h, C57BL/6 recipients n=5, untreated 149825±8424; for increase in entry into bone marrow over untreated control cells: C57BL/6 recipients; for entry of EL-4 cells into the spleen / level of EL-4 cells entry into thymus, kidney and liver, or their number in the plasma: vs untreated cells
Protocol: Mouse EL-4 T-lymphoma cells were incubated without any further treatment or with either GnRH-I or GnRH-II (10 nM) for […] (37° C., 7.5% CO2 in a humidified incubator) and then washed, counted, and fluorescently labeled with BCECF AM (30 minutes 37° C., 7.5% CO2 humidified incubator), as described above.
(§1) Normal syngeneic C57BL/6 female recipient mice were then subjected to 300 rad total body irradiation, and several hours later inoculated I.P with 5×10^6 cells/mouse of either untreated or GnRH-treated EL-4 lymphoma cells. In parallel, samples from the treated and GnRH inoculated EL-4 cells were tested by double immunofluorescence (as described above) for the level of their 67 kD LR and TCRαβ. After 36 hours, the spleen, thymus, kidney, liver, bone marrow, and a fixed volume of blood were removed from the recipient mice into tubes containing 10 ml PBS, and cell suspensions were prepared from each organ of each individual mouse. Following further dilution in PBS for the kidney (1:3) and liver (1:10), the number of fluorescent cells, as well as the total number of cells in each tube, were counted by flow cytometry (FACSORT).
To assess whether exposure of EL-4 T-lymphoma cells to GnRH modulated their immigration and organ invasion profiles in vivo, the EL-4 cells were treated ex vivo with GnRH-I or GnRH-II (10 nM, 48 h), loaded with a fluorescent dye, and inoculated into normal syngeneic C57BL/6 (H-2b) recipient mice. After 48 hours, the spleen, thymus, kidney, liver, bone marrow, and a fixed volume of blood were removed, individual cells suspensions were prepared and the number of labeled immigrating cells, as well as the total number of cells present in each organ (labeled+non-labeled) was counted by flow cytometry.

EL-4 T-lymphoma cells [2] = experiment: Double immunofluorescence staining for 67 kDa LR and TCRαβ on EL-4 cells; assay type: cell-based, mouse; conditions: 10 nM, vs untreated EL-4 cells
Protocol: Normal human T-cells, isolated from fresh peripheral blood lymphocytes, or EL-4 T-lymphocyte cells were subjected to double immunofluorescence staining, using a mouse monoclonal anti-67 kDa LR antibody (100 μl of 1:20 dilution per 1×10^6 cells/tube; 30 minutes on ice), or normal mouse sera for control. The cells were then stained with an FITC-conjugated goat anti-mouse IgG (100 μl of 1:100 dilution), and PE-conjugated mouse anti-human TCR αβ mAb (2 μl of stock). Cells that were stained only with the second and third antibodies served as additional negative controls. Fluorescence profiles were recorded in a FACSORT.
as §1, with “After 36 hours, the spleen, thymus, kidney, liver, bone marrow, and a fixed volume of blood were removed from the recipient mice into tubes containing 10 ml PBS, and cell suspensions were prepared from each organ of each individual mouse.” left out

normal human T-cells [3] = experiment: In-vitro chemotactic migration assay towards SDF-1 through laminin-coated filters; assay type: cell-based; conditions: 10 nM, at least 18 h pretreatment; four independent experiments
Protocol: Normal human T-cells (1×10^6 cells/well in rest medium) were pretreated with GnRH-I or GnRH-II (10 nM, >18 hours, 37° C., 7.5% CO2 humidified incubator), washed, resuspended in adhesion medium and fluorescently labeled (50 μg/ml, 30 minutes, 37° C., 7.5% CO2 humidified incubator) with 2′,7′-bis-(2-carboxyethyl)-5-(and-6)-carboxyfluorescein acetoxymethyl (BCECF AM, Molecular Probes, Eugene, Oreg.). The cells were then washed, resuspended in adhesion medium, and added to the upper chambers (2×10^5 cells per 100 μl well) of a 24-well chemotaxis microchamber plate (Corning Inc., Corning, N.Y.). The two compartments of the microchambers were separated by polycarbonate filters ([…] pore size) pre-coated with laminin ([…], about 1.5 hour, 37° C.). […]
Adhesion of T-cells to components of the basement membrane is a crucial step in the series of events that eventually enable T-cells to migrate and extravasate from the blood stream to specific tissues. […] To determine whether GnRH can induce T-cells to migrate towards a chemoattractant, we made use of the Boyden chamber migration assay and scored the number of fluorescence-labeled normal human T-cells which migrated from a medium-containing upper chamber to a chemoattractant-containing lower chamber. […]

normal human T-cells [4] = experiment: Double immunofluorescence staining for VLA-6 laminin-binding integrin and TCR; assay type: cell-based; conditions: untreated cells about 75% double positive; data not shown
Text: Finally, the possibility that the stimulation of normal human T-cells by either GnRH-I, GnRH-II or anti-CD3+ anti-CD28 mAbs, elevates not only the non-integrin 67 kDa LR but also the expression level of the VLA-6 laminin-binding integrin (known to be expressed on T-cells) was investigated. […] Thus stimulation by GnRH-II and GnRH-I (as well as TCR-activation) primarily increases-the-protein surface expression of the non-integrin 67 kDa LR, but not of the VLA-6 laminin binding integrin.

Molecule	mean number of EL-4 labeled cells detected in the bone marrow (EL-4 T-lymphoma cells [1])	increase in entry into bone marrow over untreated control cells (EL-4 T-lymphoma cells [1])	entry of EL-4 cells into the spleen (EL-4 T-lymphoma cells [1])	level of EL-4 cells entry into thymus, kidney and liver, or their number in the plasma (EL-4 T-lymphoma cells [1])	surface level of 67 kDa LR on TCR αβ+ EL-4 cells (EL-4 T-lymphoma cells [2])	migration of T-cells towards chemoattractant SDF-1 (normal human T-cells [3])	expression level of VLA-6 laminin-binding integrin (normal human T-cells [4])
pGlu-His-Trp-Ser-Tyr-Gly-Leu-Arg-Pro-Gly-NH2 [GnRH-I]	321400±15165	115%	significant enhanced entry	did not affect	increases	directly increase the migration potential; also recorded: significantly augments	unaffected
GnRH-II: unique ten amino acid long neuropeptide, 70% homologous in peptide structure to GnRH-I, encoded by its own gene (peptide) peptide: QHWSHGWYPGGKRALSSAQDPQNALRPPGRALDTAAGSPVQTAHGLPSDALAPLDDSMPWEGRTTAQWSLHRKRHLARTLLTAAREPRPAPPSSNKV	219280±14003	46%	significant enhanced entry	did not affect	increases	directly increase the migration potential; also recorded: significantly augments	unaffected
